ChEMBL document CHEMBL1201862, “PubChem BioAssay data set” (2004)
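Five compound concentrations were applied to cells in 96-well plates for 48 hours; endpoints were derived by simple linear interpolation of the resulting dose-response curve. GI50 marks 50% less growth.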 The source made the active and inactive calls. No stated cut-off is given here; in the data, active = GI50 up to about 1.1 µM and inactive = higher.

Key:
Experiment in all cases: NCI-60 cell line screen, 48 h
HCT-116 = test system: HCT-116
MDA-MB-435 = test system: MDA-MB-435
NCI-H522 = test system: NCI-H522
MCF7 = test system: MCF7
TK-10 = test system: TK-10
786-0 = test system: 786-0
COLO 205 = test system: COLO 205
BT-549 = test system: BT-549
SF-295 = test system: SF-295
NCI/ADR-RES = test system: NCI/ADR-RES
NCI-H460 = test system: NCI-H460
RXF 393 = test system: RXF 393
DU-145 = test system: DU-145
PC-3 = test system: PC-3
SF-539 = test system: SF-539
UACC-257 = test system: UACC-257
OVCAR-8 = test system: OVCAR-8
SK-MEL-2 = test system: SK-MEL-2
RPMI-8226 = test system: RPMI-8226
SK-OV-3 = test system: SK-OV-3

Row | Structure (SMILES) | GI50 (HCT-116) | GI50 (MDA-MB-435) | GI50 (NCI-H522) | GI50 (MCF7) | GI50 (TK-10) | GI50 (786-0) | GI50 (COLO 205) | GI50 (BT-549) | GI50 (SF-295) | GI50 (NCI/ADR-RES) | GI50 (NCI-H460) | GI50 (RXF 393) | GI50 (DU-145) | GI50 (PC-3) | GI50 (SF-539) | GI50 (UACC-257) | GI50 (OVCAR-8) | GI50 (SK-MEL-2) | GI50 (RPMI-8226) | GI50 (SK-OV-3)
1 | COC(=O)C1=C(C(=O)OC)SC2(S1)C(C(=O)OC)=C(C(=O)OC)Sc1c2ssc1=O | 0.459 µM (active) | 1.57 µM (inactive) | 0.177 µM (active) | 1.26 µM (inactive) | 1.58 µM (inactive) | 0.456 µM (active) | 0.524 µM (active) | 1.5 µM (inactive) | 11.4 µM (inactive) | 1 µM (active) | 2.88 µM (inactive) | 1.08 µM (active) | 0.877 µM (active) | 1.43 µM (inactive) | 1.15 µM (inactive) | 1.51 µM (inactive) | 1.34 µM (inactive) | 1.78 µM (inactive) | 0.982 µM (active) | 8.97 µM (inactive)
2 | CC(C)C[C@H]1[C@@H](OCc2ccccc2)COS(=O)(=O)N1[C@H](C)c1ccccc1 | 5.24 µM (inactive) | 49.7 µM (inactive) | 7.83 µM (inactive) | 21.7 µM (inactive) | 83 µM (inactive) | 23.4 µM (inactive) | > 72.6 µM (inactive) | > 58.2 µM (inactive) | 9.12 µM (inactive) | 52.2 µM (inactive) | 11.7 µM (inactive) | 29.1 µM (inactive) | 37.9 µM (inactive) | 7.38 µM (inactive) | > 100 µM (inactive) | 20 µM (inactive) | > 61.5 µM (inactive) | 44.6 µM (inactive) | 4.05 µM (inactive) | > 93.1 µM (inactive)
3 | CSC(=N\c1ccccc1)/N=C(\SCc1ccccc1)N(C)C | 0.292 µM (active) | 1.23 µM (inactive) | 0.21 µM (active) | 0.278 µM (active) | 1.15 µM (inactive) | 0.531 µM (active) | 0.407 µM (active) | 1.42 µM (inactive) | 1.43 µM (inactive) | 1.38 µM (inactive) | 0.161 µM (active) | 0.989 µM (active) | 0.9 µM (active) | 1.29 µM (inactive) | 1.28 µM (inactive) | 1.57 µM (inactive) | 1.2 µM (inactive) | 1.87 µM (inactive) | 0.218 µM (active) | 3.24 µM (inactive)
4 | Nc1c(O)c(C(=O)O)cc2ccccc12 | 17.5 µM (inactive) | 18.8 µM (inactive) | 17.7 µM (inactive) | 11.6 µM (inactive) | 98.4 µM (inactive) | 19.6 µM (inactive) | 26.1 µM (inactive) | 21.3 µM (inactive) | 51.8 µM (inactive) | 32.1 µM (inactive) | 39.6 µM (inactive) | > 100 µM (inactive) | 17.9 µM (inactive) | 39.1 µM (inactive) | 40.6 µM (inactive) | 17.3 µM (inactive) | 44.3 µM (inactive) | 17.7 µM (inactive) | 33.3 µM (inactive) | > 100 µM (inactive)
5 | Cc1cnc(NCCCN(C)C)c2c1[nH]c1ccc3cc(O)ccc3c12 | 0.236 µM (active) | 1.1 µM (active) | 0.129 µM (active) | 0.308 µM (active) | 6.04 µM (inactive) | 0.2 µM (active) | 0.244 µM (active) | 1.52 µM (inactive) | 0.7 µM (active) | 3.44 µM (inactive) | 0.0439 µM (active) | 0.667 µM (active) | 1.29 µM (inactive) | 0.585 µM (active) | 0.508 µM (active) | 4.6 µM (inactive) | 0.2 µM (active) | 1.03 µM (active) | 0.6 µM (active) | 0.569 µM (active)
6 | C=C1CC2(CC(c3ccccc3OC)OC(c3ccccc3OC)C2)OC1=O (stereo not given) | 1.78 µM (inactive) | 1.91 µM (inactive) | 1.5 µM (inactive) | 1.67 µM (inactive) | 1.71 µM (inactive) | 1.63 µM (inactive) | 2.36 µM (inactive) | 1.64 µM (inactive) | 7.38 µM (inactive) | 2.47 µM (inactive) | 5.75 µM (inactive) | 1.81 µM (inactive) | 7.8 µM (inactive) | 2.06 µM (inactive) | 2.15 µM (inactive) | 2.07 µM (inactive) | 1.8 µM (inactive) | 1.91 µM (inactive) | 0.25 µM (active) | 12.8 µM (inactive)
7 | c1sc(NC2=NCCO2)c2c1CCCC2 | > 100 µM (inactive) | > 100 µM (inactive) | > 100 µM (inactive) | > 100 µM (inactive) | > 100 µM (inactive) | > 100 µM (inactive) | > 100 µM (inactive) | > 100 µM (inactive) | > 100 µM (inactive) | > 100 µM (inactive) | > 100 µM (inactive) | > 100 µM (inactive) | > 100 µM (inactive) | 99.8 µM (inactive) | > 100 µM (inactive) | > 100 µM (inactive) | > 100 µM (inactive) | > 100 µM (inactive) | > 100 µM (inactive) | > 100 µM (inactive)
8 | O=S(=O)(Oc1ccc2oc3ccccc3c2c1-c1c(OS(=O)(=O)C(F)(F)F)ccc2oc3ccccc3c12)C(F)(F)F | > 100 µM (inactive) | > 100 µM (inactive) | > 100 µM (inactive) | > 100 µM (inactive) | > 100 µM (inactive) | > 100 µM (inactive) | > 92.3 µM (inactive) | > 100 µM (inactive) | > 100 µM (inactive) | > 100 µM (inactive) | > 100 µM (inactive) | > 100 µM (inactive) | > 100 µM (inactive) | > 100 µM (inactive) | > 100 µM (inactive) | > 100 µM (inactive) | > 100 µM (inactive) | > 100 µM (inactive) | > 100 µM (inactive) | > 100 µM (inactive)
9 | N#CCCN(CCC#N)c1ccc(/C=C2\N=C(c3ccccc3)N(c3ccc(Cl)cc3)C2=O)cc1 | > 100 µM (inactive) | 45.5 µM (inactive) | > 100 µM (inactive) | > 100 µM (inactive) | > 100 µM (inactive) | > 100 µM (inactive) | > 100 µM (inactive) | > 100 µM (inactive) | 30.3 µM (inactive) | > 100 µM (inactive) | > 100 µM (inactive) | > 100 µM (inactive) | > 100 µM (inactive) | > 100 µM (inactive) | > 100 µM (inactive) | > 100 µM (inactive) | > 100 µM (inactive) | 76.6 µM (inactive) | > 100 µM (inactive) | > 100 µM (inactive)
10 | O=C1c2ccccc2C(=O)N1C(=S)c1ccccc1 | > 100 µM (inactive) | > 100 µM (inactive) | > 100 µM (inactive) | > 100 µM (inactive) | > 100 µM (inactive) | > 100 µM (inactive) | > 100 µM (inactive) | > 100 µM (inactive) | > 100 µM (inactive) | > 100 µM (inactive) | > 100 µM (inactive) | > 100 µM (inactive) | > 100 µM (inactive) | > 100 µM (inactive) | > 100 µM (inactive) | > 100 µM (inactive) | > 100 µM (inactive) | > 100 µM (inactive) | > 100 µM (inactive) | > 100 µM (inactive)
